# Source: patent US9028845B2, “Chimeric immunomodulatory compounds and methods of using the same-IV” (Dynavax Technologies Corporation, priority 2001, dated 2015)
# Entries after “also recorded” stand apart in the source; their conditions may differ.
# How the values were obtained:
# [1] = test system: human PBMCs; assay: Human PBMC cytokine response assay (IFN-γ and IFN-α in cell-free medium by ELISA), with or without cPLGA; format: cell-based;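 for IFN-α (pg/ml) mean: 20 µg/mL compound for 24 hours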;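 for IFN-γ (pg/ml) mean: 20 µg/mL compound for 24 hours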
# [2] = test system: CD19+ B cells; assay: Human B cell proliferation assay (3H-thymidine incorporation); conditions: 2 μg/ml
# [3] = test system: PBMCs; assay: Human PBMC proliferation assay (3H-thymidine incorporation); format: cell-based; conditions: Experiment A; for mean cpm: 2 μg/ml
# [4] = test system: mice; assay: Serum cytokines (IL-12 p40, IL-6, TNF-α) after subcutaneous injection in mice; format: in vivo; conditions: 20 ug subcutaneous, blood 2 hours later
# Protocol: Blood was collected 2 hours later. For the LPS positive control group, mice were injected intraperitoneally with a 200 ul volume, and blood was collected 1.5 hours later (i.e., at the peak of LPS induced TNF-α activity). The blood was clotted and the serum was prepared and stored at −80° C. until assayed. Serum cytokines were assayed using Biosource cytoscreen kits for TNF-α and Pharmingen antibody pairs for mIL-6 and mIL-12. All samples were assayed in duplicate.
# [5] = Table 25, mean of donors 28250-28253
# [6] = mean of Donors 1-2, 20 μg/ml, 24 h
# [7] = mean of Donors 3-4, 20 μg/ml, 24 h
# [8] = B cells, Donor 146, Experiment A
# [9] = B cells, Donor 147, Experiment A
substance,measurement,setting,value
"5′-TCGTCGA-3′ [Compound P-1, reference compound]",IFN-α (pg/ml) Donor 1,"[1]; Donor 1, 20 μg/ml, 24 h",0 pg/mL
same,IFN-γ (pg/ml) Donor 1,"[1]; Donor 1, 20 μg/ml, 24 h",8 pg/mL
same,IFN-α (pg/ml) Donor 2,"[1]; Donor 2, 20 μg/ml, 24 h",0 pg/mL
same,IFN-γ (pg/ml) Donor 2,"[1]; Donor 2, 20 μg/ml, 24 h",0 pg/mL
same,IFN-α (pg/ml) Donor 3,"[1]; Donor 3, 20 μg/ml, 24 h",0 pg/mL
same,IFN-γ (pg/ml) Donor 3,"[1]; Donor 3, 20 μg/ml, 24 h",1 pg/mL
same,IFN-α (pg/ml) Donor 4,"[1]; Donor 4, 20 μg/ml, 24 h",32 pg/mL
same,IFN-γ (pg/ml) Donor 4,"[1]; Donor 4, 20 μg/ml, 24 h",4 pg/mL
same,IFN-a,"[1]; Table 25, donor 28250",16 pg/mL
same,IFN-g,"[1]; Table 25, donor 28250, polynucleotides/spacers at amounts equivalent to the CIC, spacers alone 9 uM",54 pg/mL
same,IFN-a,"[1]; Table 25, donor 28251",16 pg/mL
same,IFN-g,"[1]; Table 25, donor 28251",21 pg/mL
same,IFN-a,"[1]; Table 25, donor 28252",16 pg/mL
same,IFN-g,"[1]; Table 25, donor 28252",56 pg/mL
same,IFN-a,"[1]; Table 25, donor 28253",16 pg/mL
same,IFN-g,"[1]; Table 25, donor 28253",1 pg/mL
same,IFN-a mean,[1]; [5],16 pg/mL
same,IFN-g mean,[1]; [5],33 pg/mL
same,IFN-α (pg/ml) mean,[1]; [6],0 pg/mL
same,IFN-γ (pg/ml) mean,[1]; [6],4 pg/mL
same,IFN-α (pg/ml) mean,[1]; [7],16 pg/mL
same,IFN-γ (pg/ml) mean,[1]; [7],2 pg/mL
same,"immunomodulatory activity (IFN-γ / IFN-α secretion), in words",[1]; used alone (no cPLGA),no activity; also recorded: did not have immunomodulatory activity
same,"B cell proliferation, in words",[2]; 48 h plus 8 h 3H-thymidine pulse,little to no B cell proliferation
same,cpm1,[2]; [8],761 cpm
same,cpm2,[2]; [8],608 cpm
same,cpm3,[2]; [8],721 cpm
same,mean cpm,"[2]; B cells, Donor 146 mean, Experiment A",697 cpm
same,cpm1,[2]; [9],569 cpm
same,cpm2,[2]; [9],460 cpm
same,cpm3,[2]; [9],687 cpm
same,mean cpm,"[2]; B cells, Donor 147 mean, Experiment A",572 cpm
same,mean of both,"[2]; B cells, mean of Donors 146 and 147, Experiment A",634 cpm
same,cpm1,"[3]; Donor 146, 2 μg/ml",9724 cpm
same,cpm2,"[3]; Donor 146, 2 μg/ml",3041 cpm
same,cpm3,"[3]; Donor 146, 2 μg/ml",2425 cpm
same,mean cpm,[3]; Donor 146 mean,5063 cpm
same,cpm1,"[3]; Donor 147, 2 μg/ml",1706 cpm
same,cpm2,"[3]; Donor 147, 2 μg/ml",1960 cpm
same,cpm3,"[3]; Donor 147, 2 μg/ml",324 cpm
same,mean cpm,[3]; Donor 147 mean,1330 cpm
same,mean of both,"[3]; mean of Donors 146 and 147, 2 μg/ml",3197 cpm
same,"induction of serum IL-12 p40, IL-6 and TNF-α, in words",[4],inactive
